Where two headings read alike, the source gives them in different places. A value given as a limit tells only on which side of the number the result lay.

In the test the test system is PMA-differentiated THP-1 cells. Description: IL-1β production in PMA-differentiated THP-1 cells stimulated with gramicidin (hTHP-1 assay containing 2% fetal bovine serum; Procedures 1 and 2). It is filed as cell-based, human. The conditions noted are these: 2% fetal bovine serum. In short, it runs like this: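 Human monocytic THP-1 cells, matured overnight with PMA at 20 ng/ml, are seeded in low-serum (2% FBS) RPMI. Test compounds, at final concentrations from 100 down to 0.0017 μM, precede gramicidin (5 μM, 2 h) by one hour. Released IL-1β is then determined by HTRF.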

Setting [1] is: Table B2, class symbols, read-out: hTHP-1 IC50.
[2] abbreviates: Homo sapiens, THP-1, Table B3, hTHP-1 assay, class symbols, read-out: IC50.
Where [3] appears, read: Homo sapiens, THP-1, Table B4, class symbols, read-out: hTHP-1 IC50.
The mark [4] stands for this setting: Table B1, class symbols, read-out: Average IC50 of compounds in hTHP-1 assay: hTHP-1 IC50.
Setting [5] is: Table B3, hTHP-1 assay, class symbols, read-out: IC50.
Where [6] appears, read: Homo sapiens, THP-1, Table B2, numeric bounds, read-out: hTHP-1 IC50.

`CC1(C)CCc2c1nc1c(c2NC(=O)N=S(N)(=O)c2sc(C(O)(CO)CO)nc2CO)CCC1` (single isomer, unassigned) [Example 778, (S) or (R)-N′-((3,3-dimethyl-1,2,3,5,6,7-hexahydrodicyclopenta [b,e]pyridin-8-yl)carbamoyl)-4-(hydroxymethyl)-2-(1,2,3-trihydroxypropan-2-yl)-thiazole-5-sulfonimidamide]: the IC50 (Table B4, class symbols, read-out: hTHP-1 IC50) lay within 1000 to 5000 nM.

Take `CCc1c(C(F)(F)F)nc2c(c1NC(=O)N=S(N)(=O)c1cc(C(C)(C)O)cs1)CCC2` (single isomer, unassigned) [Compound 698a, (S) or (R)-N′-((3-ethyl-2-(trifluoromethyl)-6,7-dihydro-5H-cyclopenta[b]pyridin-4-yl)carbamoyl)-4-(2-hydroxypropan-2-yl)thiophene-2-sulfonimidamide]: the IC50 under setting [1] lay in the range of 1000 to 5000 nM.

With `CC(C)(O)c1sc(S(N)(=O)=NC(=O)Nc2c3c(nc4c2CCC42CC2)CCC3)cc1F` (single isomer, unassigned) [Compound 614a, (R) or (S)-4-Fluoro-5-(2-hydroxypropan-2-yl)-N′-((1′,5′,6′,7′-tetrahydro-2′H-spiro[cyclopropane-1,3′-dicyclopenta[b,e]pyridin]-8′-yl)carbamoyl) thiophene-2-sulfonimidamide], the IC50 under setting [1] fell in the range of 40 to 200 nM.

Consider `CC(C)c1ncc(F)c(C(C)C)c1NC(=O)N=S(N)(=O)c1nc(C(C)(C)O)cs1` (centres unmarked) [Compound 163, N′-((5-fluoro-2,4-diisopropylpyridin-3-yl)carbamoyl)-4-(2-hydroxypropan-2-yl)thiazole-2-sulfonimidamide], for which the IC50 (Homo sapiens, THP-1, Table B1, class symbols, read-out: Average IC50 of compounds in hTHP-1 assay: hTHP-1 IC50) fell in the range of 200 to 1000 nM.

Take `C[C@](O)(CO)c1cc(F)c([S@@](N)(=O)=NC(=O)Nc2c3c(nc4c2CCC42CC2)CCC3)s1` [Example 677, (S)-5-((S)-1,2-dihydroxypropan-2-yl)-3-fluoro-N′-((1′,5′,6′,7′-tetrahydro-2′H-spiro[cyclopropane-1,3′-dicyclopenta[b,e]pyridin]-8′-yl)carbamoyl)thiophene-2-sulfonimidamide]: the IC50 under setting [2] was 5000 to 30000 nM.

Take `CCn1cc(F)c(S(N)(=O)=NC(=O)Nc2c3c(nc(C(F)(F)F)c2-c2ccccc2F)CCC3)n1` (centres unmarked) [Example 746, 1-Ethyl-4-fluoro-N′-((3-(2-fluorophenyl)-2-(trifluoromethyl)-6,7-dihydro-5H-cyclopenta[b]pyridin-4-yl)carbamoyl)-1H-pyrazole-3-sulfonimidamide]: under setting [3], the IC50 was in the range of 8 to 40 nM.

With `CC(C)n1ccc(S(N)(=O)=NC(=O)Nc2c3c(nc4c2CCC42CC2)CCC3)n1` (single isomer, unassigned) [Compound 172b, (R) or (S)-1-Isopropyl-N′-((1′,5′,6′,7′-tetrahydro-2′H-spiro[cyclopropane-1,3′-dicyclopenta[b,e]pyridin]-8′-yl)carbamoyl)-1H-pyrazole-3-sulfonimidamide], under setting [4], the IC50 is 200 to 1000 nM.

For the compound `CCn1cc(F)c(S(N)(=O)=NC(=O)Nc2c(C)c(C3CC3)nc3c2CCC3)n1` (single isomer, unassigned) [Example 714, (S) or (R)-N′-((2-cyclopropyl-3-methyl-6,7-dihydro-5H-cyclopenta[b]pyridin-4-yl)carbamoyl)-1-ethyl-4-fluoro-1H-pyrazole-3-sulfonimidamide], under setting [5], the IC50 was in the range of 1000 to 5000 nM.

In the case of `CC1(C)CCc2c1nc1c(c2NC(=O)N=S(N)(=O)c2sc([C@@](C)(O)CO)nc2CO)CCC1` (stereo partly drawn) [Example 599, 2-((S)-1,2-dihydroxypropan-2-yl)-N′-((3,3-dimethyl-1,2,3,5,6,7-hexahydrodicyclopenta[b,e]pyridin-8-yl)carbamoyl)-4-(hydroxymethyl)thiazole-5-sulfonimidamide], the IC50 under setting [2] is 1000 to 5000 nM.

`CC1(C)CCc2c1nc1c(c2NC(=O)N=S(N)(=O)c2cnc(C(C)(O)CO)s2)CCC1` (single isomer, unassigned) [Compound 201d, (R, S) or (S, S) or (S, R) or (R, R)-2-(1.2-Dihydroxypropan-2-yl)-N′-((3,3-dimethyl-1,2,3,5,6.7-hexahydrodicyclopenta [b,e]pvridin-8-yl)carbamoyl)thiazole-5-sulfonimidamide]: under setting [1], the IC50 was in the range of 5000 to 30000 nM.

For the compound `CC(C)(O)c1cc(F)c(S(N)(=O)=NC(=O)Nc2c3c(nc4c2CCC4(C)C)CCC3)s1` (single isomer, unassigned) [Compound 102a, (S) or (R)-N′-((3,3-dimethyl-1,2,3,5,6,7-hexahydro-dicyclopenta[b,e]pyridin-8-yl)carbamoyl)-3-fluoro-5-(2-hydroxy-propan-2-yl)thiophene-2-sulfonimidamide], the IC50 under setting [4] fell in the range of 1000 to 5000 nM.

Regarding `CC1CCc2c1nc1c(c2NC(=O)N=S(N)(=O)c2cc(C(C)(C)O)n(-c3ccccc3)n2)CCC1` (single isomer, unassigned) [Compound 664a, (S) or (R)-5-(2-Hydroxypropan-2-yl)-N′-((3-methyl-1,2,3,5,6,7-hexahydrodicyclopenta [b,e]pyridin-8-yl)carbamoyl)-1-phenyl)-1-pyrazole-3-sulfonimidamide], the IC50 under setting [6] is > 30000 nM.

Take `CCn1cc(F)c(S(N)(=O)=NC(=O)Nc2c(C)c(C(F)(F)F)nc3c2CCC3)n1` (centres unmarked) [Example 597, 1-Ethyl-4-fluoro-N′-((3-methyl-2-(trifluoromethyl)-6,7-dihydro-5H-cyclopenta[b]pyridin-4-yl)calbamoyl)-1H-pyrazole-3-sulfonimidamide]: the IC50 under setting [2] is 40 to 200 nM.

As to `Cc1c(C2CC2)nc2c(c1NC(=O)N=S(N)(=O)c1cnn3c1OCCC3)CCC2` (single isomer, unassigned) [Compound 306a, (S) or (R)-N′-((2-cyclopropyl-3-methyl-6,7-dihydro-5H-cyclopenta[b]pyridin-4-yl)carbamoyl)-6,7-dihydro-5H-pyrazolo[5,1-b] [1,3]oxazine-3-sulfonimidamide], the concentration for half-maximal inhibition (IC50) under setting [1] was 5000 to 30000 nM.

Turning to `CCn1cc(F)c(S(N)(=O)=NC(=O)Nc2c3c(nc(C(F)(F)F)c2-c2ccc(F)cc2)CCC3)n1` (centres unmarked) [Example 733, 1-Ethyl-4-fluoro-N′-((3-(4-fluorophenyl)-2-(trifluoromethyl)-6,7-dihydro-5H-cyclopenta[b]pyridin-4-yl)carbamoyl)-1H-pyrazole-3-sulfonimidamide], the IC50 under setting [3] was in the range of 40 to 200 nM.

On to `Cc1c(C(F)(F)F)nc2c(c1NC(=O)N=S(N)(=O)c1ccn(C(C)C)n1)CCC2` (single isomer, unassigned) [Compound 628a, (S) or (R)-1-Isopropyl-N′-((3-methyl-2-(trifluoromethyl)-6,7-dihydro-5H-cyclopenta[b]pyridin-4-yl)carbamoyl)-1H-pyrazole-3-sulfonimidamide], for which the IC50 under setting [6] is > 30000 nM.

For the compound `Cc1c(C(F)(F)F)nc2c(c1NC(=O)N=S(N)(=O)c1sc(C(C)(C)O)cc1F)CCC2` (single isomer, unassigned) [Compound 632b, (S) or (R)-3-Fluoro-5-(2-hydroxypropan-2-yl)-N′-((3-methyl-2-(trifluoromethyl)-6,7-dihydro-5H-cyclopenta[b]pyridin-4-yl)carbamoyl) thiophene-2-sulfonimidamide], the IC50 under setting [1] was 5000 to 30000 nM.

Turning to `Cc1c(C2CC2)nc2c(c1NC(=O)N=S(N)(=O)c1cc(C(C)(C)O)cs1)CCC2C` (single isomer, unassigned) [Compound 656a, (R, R) or (R, S) or (S, R) or (S, S)-N′-((2-Cyclopropyl-3,7-dimethyl-6,7-dihydro-5H-cyclopenta[b]pyridin-4-yl)carbamoyl)-4-(2-hydroxypropan-2-yl)thiophene-2-sulfonimidamide], the IC50 under setting [1] fell in the range of 200 to 1000 nM.

Take `Cc1c(C(F)(F)F)nc2c(c1NC(=O)N=S(N)(=O)c1nn(C(F)F)cc1F)CCC2` (centres unmarked) [Example 561, 1-(Difluoromethyl)-4-fluoro-N′-((3-methyl-2-(trifluoromethyl)-6,7-dihydro-5H-cyclopenta[b]pyridin-4-yl)carbamoyl)-1H-pyrazole-3-sulfonimidamide]: under setting [2], the IC50 was in the range of 200 to 1000 nM.

As to `CCn1ccc(S(N)(=O)=NC(=O)Nc2c(C)c(C(F)(F)F)nc3c2CCC3)n1` (single isomer, unassigned) [Example 692, (S) or (R)-1-Ethyl-N′-((3-methyl-2-(trifluoromethyl)-6,7-dihydro-5H-cyclopenta[b]pyridin-4-yl)carbamoyl)-1H-pyrazole-3-sulfonimidamide], the IC50 under setting [5] lay within 5000 to 30000 nM.

As for `CC(C)(O)c1sc(S(N)(=O)=NC(=O)Nc2c3c(nc4c2CCC42CC2)CCC3)cc1F` (single isomer, unassigned) [Compound 614b, (S) or (R)-4-Fluoro-5-(2-hydroxypropan-2-yl)-N′-((1′,5′,6′,7′-tetrahydro-2′H-spiro[cyclopropane-1,3′-dicyclopenta[b,e]pyridin]-8′-yl)carbamoyl) thiophene-2-sulfonimidamide], the IC50 under setting [1] was 1000 to 5000 nM.

`CCc1ccsc1S(N)(=O)=NC(=O)Nc1c2c(nc3c1CC[C@H]3C)CCC2` (stereo partly drawn) [Example 631, 3-Ethyl-N′-(((R)-3-methyl-1,2,3,5,6,7-hexahydrodicyclopenta[b,e]pyridin-8-yl)carbamoyl)thiophene-2-sulfonimidamide]: the IC50 under setting [2] was in the range of 1000 to 5000 nM.

Consider `Cc1c(C2(F)CC2)nc2c(c1NC(=O)N=S(N)(=O)c1sc(C(C)(C)O)cc1F)CCC2` (centres unmarked) [Example 612, 3-Fluoro-N′-((2-(1-fluorocyclopropyl)-3-methyl-6,7-dihydro-5H-cyclopenta[b]pyridin-4-yl)carbamoyl)-5-(2-hydroxypropan-2-yl)thiophene-2-sulfonimidamide], for which the IC50 under setting [2] was in the range of 1000 to 5000 nM.

These data come from US20230031406A1, “COMPOUNDS AND COMPOSITIONS FOR TREATING CONDITIONS ASSOCIATED WITH NLRP ACTIVITY” (Novartis AG, priority 2018, published 2023).
